The compounds below were run on MCF-7, clone WS8, cells (assay: MCF-7 cell proliferation assay of estrogenic activity). Conditions: logarithmic (base 10) Relative Proliferative Effect vs 17-beta estradiol; 'expected or measured' values, not told apart.
Assay type: cell-based, human
Text: The MCF-7 assay uses MCF-7, clone WS8, cells to measure whether and to what extent a substance induces cell proliferation via estrogen receptor (ER)-mediated pathways. The method is described in “Test Method Nomination: MCF-7 Cell Proliferation Assay of Estrogenic Activity” submitted for validation by CertiChem, Inc. to the National Toxicology Program Interagency Center for the Evaluation of Alternative Toxicological Methods (NICEATM) on Jan. 19, 2006 (available online at http://iccvam.niehs.nih.gov/methods/endocrine/endodocs/SubmDoc.pdf).
A brief summary of the method of the aforementioned MCF-7 assay is provided below. MCF-7, clone WS8, cells are maintained at 37° C. in RMPI (or Roswell Park Memorial Institute medium) containing Phenol Red (e.g., GIBCO Catalog Number 11875119) and supplemented with the indicated additives for routine culture. An aliquot of cells maintained at 37° C. are grown for 2 days in phenol-free media containing 5% charcoal stripped fetal bovine serum in a 25 cm^2 tissue culture flask. Using a robotic dispenser such as an epMotion 5070 unit, MCF-7 cells are then seeded at 400 cells per well in 0.2 ml of hormone-free culture medium in Corning 96-well plates. The cells are adapted for 3 days in the hormone-free culture medium prior to adding the chemical to be assayed for estrogenic activity. The media containing the test chemical is replaced daily for 6 days. At the end of the 7-day exposure to the test chemical, the media is removed, the wells are washed once with 0.2 ml of HBSS (Hanks' Balanced Salt Solution), and then assayed to quantify amounts of DNA per well using a micro-plate modification of the Burton diphenylamine (DPA) assay, which is used to calculate the level of cell proliferation.
RPE is the ratio between the EC50 of the test chemical and the EC50 of the control substance 17-beta estradiol times 100, where EC50 is “effective concentration 50%” or half-maximum stimulation concentration for cell proliferation measured as total DNA in the MCF-7 assay.

Row | SMILES | Log RPE
1 | C[C@]12CC[C@@H]3c4ccc(O)cc4CC[C@H]3[C@@H]1CC[C@@H]2O [17β-estradiol] | 2.00
2 | Oc1ccc(Cc2ccc(O)cc2)cc1 [Bisphenol F] | −2
3 | O=S(=O)(c1ccc(O)cc1)c1ccc(O)cc1 [Bisphenol S] | −2
